Source: patent US5142051A, “N-phosphonylmethoxyalkyl derivatives of pyrimidine and purine bases and a therapeutical composition therefrom with antiviral activity” (Ceskoslovenska Akademie Ved, priority 1986, dated 1992)
≈ marks a conversion by molar mass, not a printed value. Where two headings read alike, the source gives them in different places.

Assays:
vaccinia virus (VV) = assay: microbe, parasite or virus in culture; type: cell-based; settings: Orthopoxvirus vaccinia, PRK, read-out: MIC50
HSV-1 TK^- (Field) = assay: Inhibition of virus-induced cytopathic effect in PRK-cells, HSV-1 TK^- (Field); type: cell-based; settings: Human alphaherpesvirus 1, PRK, read-out: MIC50
[1] = Cytotoxicity: observable morphological changes in uninfected tissue culture cells; settings: rabbit, prk cells
HSV-2 (Lyons) = assay: Inhibition of virus-induced cytopathic effect in PRK-cells, HSV-2 (Lyons); type: cell-based; settings: read-out: MIC50
HSV-1 (KOS) = assay: Inhibition of virus-induced cytopathic effect in PRK-cells, HSV-1 (KOS); type: cell-based; settings: read-out: MIC50
HSV-1 (McIntyre) = assay: Inhibition of virus-induced cytopathic effect in PRK-cells, HSV-1 (McIntyre); type: cell-based; settings: read-out: MIC50
HSV-2 (G) = assay: Inhibition of virus-induced cytopathic effect in PRK-cells, HSV-2 (G); type: cell-based; settings: read-out: MIC50
HSV-2 (196) = assay: Inhibition of virus-induced cytopathic effect in PRK-cells, HSV-2 (196); type: cell-based; settings: read-out: MIC50
HSV-1 (F) = assay: Inhibition of virus-induced cytopathic effect in PRK-cells, HSV-1 (F); type: cell-based; settings: read-out: MIC50
HSV-1 TK^- (Cheng) = assay: Inhibition of virus-induced cytopathic effect in PRK-cells, HSV-1 TK^- (Cheng); type: cell-based; settings: Human alphaherpesvirus 1, PRK, read-out: MIC50
[2] = test system: strains or mutants devoid of thymidine kinase; settings: in words; cited from earlier work
vaccinia virus = type: cell-based; settings: in words
DNA viruses = settings: background statement, in words; cited from earlier work
[3] = test system: TK^- mutants of herpes viruses type 1 and 2; assay: Antiviral effect against TK^- mutants of herpes viruses; type: cell-based; settings: in words
[4] = in words; cited from earlier work
[5] = Human alphaherpesvirus 2, HSV-2 (Lyons), PRK-cells, 50% inhibition of cytopathic effect
[6] = Human alphaherpesvirus 1, HSV-1 (KOS), PRK-cells, 50% inhibition of cytopathic effect
[7] = Human alphaherpesvirus 1, HSV-1 (McIntyre), PRK-cells, 50% inhibition of cytopathic effect
[8] = Human alphaherpesvirus 2, HSV-2 (G), PRK-cells, 50% inhibition of cytopathic effect
[9] = Human alphaherpesvirus 2, HSV-2 (196), PRK-cells, 50% inhibition of cytopathic effect
[10] = Human alphaherpesvirus 1, HSV-1 (F), PRK-cells, 50% inhibition of cytopathic effect

## NNc1ncnc2c1ncn2CC(CO)OCP(=O)(O)O (racemic) [6-Hydrazinopurin-9-yl, (RS)--CH2 OH]
Vaccinia virus (VV)
  EC50: 20 µg/mL (≈ 62.8 µM)
HSV-1 TK^- (Field)
  EC50: 40 µg/mL (≈ 126 µM)
[1]
  MCC: 400 µg/mL
HSV-2 (Lyons); [5]
  EC50: 70 µg/mL (≈ 220 µM)
HSV-1 (KOS); [6]
  EC50: 150 µg/mL (≈ 471 µM)
HSV-1 (McIntyre); [7]
  EC50: 70 µg/mL (≈ 220 µM)
HSV-2 (G); [8]
  EC50: 70 µg/mL (≈ 220 µM)
HSV-2 (196); [9]
  EC50: 70 µg/mL (≈ 220 µM)
HSV-1 (F); [10]
  EC50: 70 µg/mL (≈ 220 µM)

## O=P(O)(O)COC(CO)Cn1cnc2c(NO)ncnc21 (racemic) [6-Hydroxylaminopurin-9-yl, (RS)--CH2 OH]
Vaccinia virus (VV)
  EC50: 7 µg/mL (≈ 21.9 µM)
[1]
  MCC: 400 µg/mL
HSV-2 (Lyons); [5]
  EC50: 20 µg/mL (≈ 62.7 µM)
HSV-1 (KOS); [6]
  EC50: 20 µg/mL (≈ 62.7 µM)
HSV-1 (McIntyre); [7]
  EC50: 7 µg/mL (≈ 21.9 µM)
HSV-2 (G); [8]
  EC50: 20 µg/mL (≈ 62.7 µM)
HSV-2 (196); [9]
  EC50: 20 µg/mL (≈ 62.7 µM)
HSV-1 (F); [10]
  EC50: 20 µg/mL (≈ 62.7 µM)

## Nc1nc2c(ncn2CC(CO)OCP(=O)(O)O)c(=O)[nH]1 (racemic) [Guanin-9-yl, (RS)--CH2 OH]
Vaccinia virus (VV)
  EC50: 2 µg/mL (≈ 6.27 µM)
HSV-1 TK^- (Field)
  EC50: 10 µg/mL (≈ 31.3 µM)
[1]
  MCC: 400 µg/mL
HSV-2 (Lyons); [5]
  EC50: 20 µg/mL (≈ 62.7 µM)
HSV-1 (KOS); [6]
  EC50: 20 µg/mL (≈ 62.7 µM)
HSV-1 (McIntyre); [7]
  EC50: 2 µg/mL (≈ 6.27 µM)
HSV-2 (G); [8]
  EC50: 20 µg/mL (≈ 62.7 µM)
HSV-2 (196); [9]
  EC50: 20 µg/mL (≈ 62.7 µM)
HSV-1 (F); [10]
  EC50: 7 µg/mL (≈ 21.9 µM)

## Nc1nc(N)c2ncn(C[C@@H](CO)OCP(=O)(O)O)c2n1 [2-Aminoadenin-9-yl, (S)--CH2 OH]
Vaccinia virus (VV)
  EC50: 0.7 µg/mL (≈ 2.2 µM)
[1]
  MCC: 200 µg/mL
HSV-2 (Lyons); [5]
  EC50: 7 µg/mL (≈ 22 µM)
HSV-1 (KOS); [6]
  EC50: 20 µg/mL (≈ 62.8 µM)
HSV-1 (McIntyre); [7]
  EC50: 2 µg/mL (≈ 6.28 µM)
HSV-2 (G); [8]
  EC50: 4 µg/mL (≈ 12.6 µM)
HSV-2 (196); [9]
  EC50: 7 µg/mL (≈ 22 µM)
HSV-1 (F); [10]
  EC50: 7 µg/mL (≈ 22 µM)

## Nc1nc(N)c2ncn(CCOCP(=O)(O)O)c2n1 [2-Aminoadenin-9-yl, H]
Vaccinia virus (VV)
  EC50: 70 µg/mL (≈ 243 µM)
[1]
  MCC: 200 µg/mL
HSV-2 (Lyons); [5]
  EC50: 2 µg/mL (≈ 6.94 µM)
HSV-1 (KOS); [6]
  EC50: 7 µg/mL (≈ 24.3 µM)
HSV-1 (McIntyre); [7]
  EC50: 2 µg/mL (≈ 6.94 µM)
HSV-2 (G); [8]
  EC50: 2 µg/mL (≈ 6.94 µM)
HSV-2 (196); [9]
  EC50: 2 µg/mL (≈ 6.94 µM)
HSV-1 (F); [10]
  EC50: 2 µg/mL (≈ 6.94 µM)

## Nc1ncc2ncn(CCOCP(=O)(O)O)c2n1 [2-Aminopurin-9-yl, H]
Vaccinia virus (VV)
  EC50: 200 µg/mL (≈ 732 µM)
HSV-1 TK^- (Field)
  EC50: 150 µg/mL (≈ 549 µM)
[1]
  MCC: 200 µg/mL
HSV-2 (Lyons); [5]
  EC50: 7 µg/mL (≈ 25.6 µM)
HSV-1 (KOS); [6]
  EC50: 70 µg/mL (≈ 256 µM)
HSV-1 (McIntyre); [7]
  EC50: 70 µg/mL (≈ 256 µM)
HSV-2 (G); [8]
  EC50: 20 µg/mL (≈ 73.2 µM)
HSV-2 (196); [9]
  EC50: 20 µg/mL (≈ 73.2 µM)
HSV-1 (F); [10]
  EC50: 70 µg/mL (≈ 256 µM)
HSV-1 TK^- (Cheng)
  EC50: 150 µg/mL (≈ 549 µM)

## Nc1nccc2c1ncn2C[C@@H](CO)OCP(=O)(O)O [3-Deazaadenin-9-yl, (S)--CH2 OH]
[1]
  MCC: 40 µg/mL
HSV-2 (Lyons); [5]
  EC50: 0.2 µg/mL (≈ 0.662 µM)
HSV-1 (KOS); [6]
  EC50: 0.2 µg/mL (≈ 0.662 µM)
HSV-1 (McIntyre); [7]
  EC50: 0.7 µg/mL (≈ 2.32 µM)
HSV-2 (G); [8]
  EC50: 0.1 µg/mL (≈ 0.331 µM)
HSV-2 (196); [9]
  EC50: 0.7 µg/mL (≈ 2.32 µM)
HSV-1 (F); [10]
  EC50: 0.2 µg/mL (≈ 0.662 µM)

## O=c1[nH]c(=O)n([C@H]2C[C@H](O)[C@@H](CO)O2)cc1C=CBr [5-(2-Bromovinyl)-2'-deoxyuridine, 5-(2-bromovinyl)-2' -deoxyuridine, reference compound]
Vaccinia virus (VV)
  EC50: 7 µg/mL (≈ 21 µM)
[1]
  MCC: 400 µg/mL
HSV-2 (Lyons); Human alphaherpesvirus 2, PRK
  EC50: 10 µg/mL (≈ 30 µM)
HSV-1 (KOS); Human alphaherpesvirus 1, PRK
  EC50: 0.02 µg/mL (≈ 0.06 µM)
HSV-1 (McIntyre); Human alphaherpesvirus 1, PRK
  EC50: 0.02 µg/mL (≈ 0.06 µM)
[2]
  sensitivity of strains or mutants devoid of thymidine kinase: usually also resistant
HSV-2 (G); Human alphaherpesvirus 2, PRK
  EC50: 4 µg/mL (≈ 12 µM)
HSV-2 (196); Human alphaherpesvirus 2, PRK
  EC50: 1 µg/mL (≈ 3 µM)
HSV-1 (F); Human alphaherpesvirus 1, PRK
  EC50: 0.02 µg/mL (≈ 0.06 µM)

## Nc1ncnc2c1ncn2C[C@@H](CO)OCP(=O)(O)O [Adenin-9-yl, (S)--CH2 OH, 9-(S)-(2-phosphonylmethoxy-3-hydroxypropyl)adenine, reference compound]
Vaccinia virus
  effect against vaccinia virus: highly effective
Vaccinia virus (VV)
  EC50: 7 µg/mL (≈ 23.1 µM)
[1]
  MCC: 100 µg/mL
HSV-2 (Lyons); [5]
  EC50: 20 µg/mL (≈ 66 µM)
HSV-1 (KOS); [6]
  EC50: 20 µg/mL (≈ 66 µM)
HSV-1 (McIntyre); [7]
  EC50: 1 µg/mL (≈ 3.3 µM)
[2]
  effect where Zovirax, DHPG fail: effective even in those cases where the above-mentioned drugs fail
HSV-2 (G); [8]
  EC50: 20 µg/mL (≈ 66 µM)
DNA viruses
  antiviral activity: very potent antivirals, acting specifically against DNA viruses
HSV-2 (196); [9]
  EC50: 7 µg/mL (≈ 23.1 µM)
[3]
  effect against TK^- mutants of herpes viruses type 1 and 2: highly effective
HSV-1 (F); [10]
  EC50: 7 µg/mL (≈ 23.1 µM)

## Nc1ccn(C[C@@H](CO)OCP(=O)(O)O)c(=O)n1 [Cytosin-1-yl, (S)--CH2 OH]
Vaccinia virus (VV)
  EC50: 0.2 µg/mL (≈ 0.716 µM)
HSV-1 TK^- (Field)
  EC50: 7 µg/mL (≈ 25.1 µM)
[1]
  MCC: 100 µg/mL
HSV-2 (Lyons); Human alphaherpesvirus 2, PRK
  EC50: 20 µg/mL (≈ 71.6 µM)
HSV-1 (KOS); Human alphaherpesvirus 1, PRK
  EC50: 7 µg/mL (≈ 25.1 µM)
HSV-1 (McIntyre); Human alphaherpesvirus 1, PRK
  EC50: 1 µg/mL (≈ 3.58 µM)
HSV-2 (G); Human alphaherpesvirus 2, PRK
  EC50: 20 µg/mL (≈ 71.6 µM)
HSV-2 (196); Human alphaherpesvirus 2, PRK
  EC50: 2 µg/mL (≈ 7.16 µM)
HSV-1 (F); Human alphaherpesvirus 1, PRK
  EC50: 2 µg/mL (≈ 7.16 µM)
HSV-1 TK^- (Cheng)
  EC50: 10 µg/mL (≈ 35.8 µM)

## Nc1nc2c(ncn2COC(CO)CO)c(=O)[nH]1 [DHPG, 9-(1,3-dihydroxy-2-propoxymethyl)guanine]
[4]
  water-solubility: low water-solubility
[2]
  sensitivity of strains or mutants devoid of thymidine kinase: not sensitive

## Nc1nc2c(ncn2CCOCP(=O)(O)O)c(=O)[nH]1 [Guanin-9-yl, H]
Vaccinia virus (VV)
  EC50: 7 µg/mL (≈ 24.2 µM)
[1]
  MCC: 40 µg/mL
HSV-2 (Lyons); [5]
  EC50: 7 µg/mL (≈ 24.2 µM)
HSV-1 (KOS); [6]
  EC50: 7 µg/mL (≈ 24.2 µM)
HSV-1 (McIntyre); [7]
  EC50: 2 µg/mL (≈ 6.92 µM)
HSV-2 (G); [8]
  EC50: 4 µg/mL (≈ 13.8 µM)
HSV-2 (196); [9]
  EC50: 2 µg/mL (≈ 6.92 µM)
HSV-1 (F); [10]
  EC50: 2 µg/mL (≈ 6.92 µM)

## Nc1ncnc2c1ncn2CCOCP(=O)(O)O [PMEA, 9-(2-phosphonylmethoxyethyl)adenine]
Vaccinia virus
  effect against vaccinia virus: highly effective
[2]
  effect where Zovirax, DHPG fail: effective even in those cases where the above-mentioned drugs fail
DNA viruses
  antiviral activity: very potent antivirals, acting specifically against DNA viruses
[3]
  effect against TK^- mutants of herpes viruses type 1 and 2: highly effective

## Cc1cn(C[C@@H](CO)OCP(=O)(O)O)c(=O)[nH]c1=O [Thymin-1-yl, (S)--CH2 OH]
Vaccinia virus (VV)
  EC50: 300 µg/mL (≈ 1020 µM)
HSV-1 TK^- (Field)
  EC50: 200 µg/mL (≈ 680 µM)
[1]
  MCC: 400 µg/mL
HSV-2 (Lyons); [5]
  EC50: 70 µg/mL (≈ 238 µM)
HSV-1 (KOS); [6]
  EC50: 70 µg/mL (≈ 238 µM)
HSV-1 (McIntyre); [7]
  EC50: 70 µg/mL (≈ 238 µM)
HSV-2 (G); [8]
  EC50: 20 µg/mL (≈ 68 µM)
HSV-2 (196); [9]
  EC50: 150 µg/mL (≈ 510 µM)
HSV-1 (F); [10]
  EC50: 150 µg/mL (≈ 510 µM)
HSV-1 TK^- (Cheng)
  EC50: 400 µg/mL (≈ 1360 µM)

## Nc1nc2c(ncn2COCCO)c(=O)[nH]1 [Zovirax]
[2]
  sensitivity of strains or mutants devoid of thymidine kinase: not sensitive
